The nature of data set [1]: Metal adsorptivity of the marker from xylene solution (GC). Type of data set: physicochemical. The conditions noted are these: Metals: 5 grams metal shavings per 100 mL, room temperature, 8 hours. The procedure:
(§1) The stability and extractability of the markers was performed using xylene solutions containing between 100-1000 ppm makers and an equivalent amount of squalene internal reference standard using the following protocols:
(§2) Laundering Agents: • 1) 5% sulfuric acid • 2) 98% sulfuric acid • 3) 5% NaOH solution • 4) 50% NaOH solution • 5) Activated charcoal (use 98 parts xylenes solution to 2 parts charcoal) • 6) 5% bleach To test for metal adsorptivity, 100 mL marked xylene tests solution is treated with 5 grams metal shavings at room temperature for 8 hours. GC analysis is again used to determine any loss of marker to the metal surface.

Data set [2] is described as follows: Laundering stability and extractability of the marker in xylene solution (GC against un-laundered reference). The data set is classed as physicochemical. The conditions noted are these: 8 hours; for marker: relative to control = 100. The procedure:
as §1
Mix 95 parts marked xylenes with 5 parts laundering agent in a 100 mL vial. Mix gently for 8 hours using a magnetic stir bar. Stop mixing and remove a xylene solution aliquot. Analyze by GC and compare marker response to reference (un-laundered) sample.
as §2

These results are taken from patent publication US8574323B2, “Marker compounds for liquid hydrocarbons and other fuels and oils” (Angus Chemical Company, priority 2010, dated 2013).

Consider `Cc1ccc(C)c(Cc2ccc(-c3ccc(Cc4cc(C)ccc4C)cc3)cc2)c1` [4,4′-bis(2,5-dimethylbenzyl)-1,1′-biphenyl], for which the “% change” value in data set [1] is “+4%”; in data set [2] (2% charcoal (activated)), −6%; in data set [2] (5% H2SO4 laundering), −1.75%; in data set [2] (5% NaOH laundering) it was −2.79%; in data set [2] (5% bleach laundering) it was −65%; in data set [2] (50% NaOH laundering), −1.74%. In addition, in data set [2] (98% H2SO4 laundering), the “% change” value worked out at 0.47%. The marker in data set [1] (relative to control = 100) was determined as 104; in data set [2] (2% charcoal (activated)), 94; in data set [2] (5% H2SO4 laundering), 98.25; in data set [2] (5% NaOH laundering), 102.79; in data set [2] (5% bleach laundering), 35; in data set [2] (50% NaOH laundering) it was 98.26. In addition, the marker in data set [2] (98% H2SO4 laundering) turned out to be 100.47.
